Reference: PubChem BioAssay (NCI)
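Growth conditions: 96-well plates. Treatment: test compound, 48 hours, 5 concentrations. Analysis: linear interpolation between bracketing concentrations; unreached endpoints set to highest concentration. GI50 marks 50% less growth. TGI is the concentration that stops growth completely.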

How the values were obtained:
Assay in all cases: DTP human tumour cell line panel, 48 h
NCI-H226 lung = system: NCI-H226 lung
HL-60(TB) leukemia = system: HL-60(TB) leukemia
NCI-H460 lung = system: NCI-H460 lung
T-47D breast = system: T-47D breast
MDA-MB-435 = system: MDA-MB-435
SK-OV-3 ovarian = system: SK-OV-3 ovarian
HT29 colon = system: HT29 colon
HCT-116 colon = system: HCT-116 colon
SNB-19 CNS = system: SNB-19 CNS
BT-549 breast = system: BT-549 breast
RXF 393 renal = system: RXF 393 renal
PC-3 prostate = system: PC-3 prostate
NCI/ADR-RES ovarian = system: NCI/ADR-RES ovarian
SK-MEL-28 melanoma = system: SK-MEL-28 melanoma
OVCAR-5 ovarian = system: OVCAR-5 ovarian
MALME-3M melanoma = system: MALME-3M melanoma
CAKI-1 renal = system: CAKI-1 renal
IGROV1 ovarian = system: IGROV1 ovarian
RPMI-8226 leukemia = system: RPMI-8226 leukemia
TK-10 renal = system: TK-10 renal
OVCAR-8 ovarian = system: OVCAR-8 ovarian
UACC-62 melanoma = system: UACC-62 melanoma
HCT-15 colon = system: HCT-15 colon
SF-268 CNS = system: SF-268 CNS
SF-295 CNS = system: SF-295 CNS
MDA-MB-231 breast = system: MDA-MB-231 breast
KM12 colon = system: KM12 colon
SN12C renal = system: SN12C renal
MCF7 breast = system: MCF7 breast
COLO 205 colon = system: COLO 205 colon
UO-31 renal = system: UO-31 renal
HCC-2998 colon = system: HCC-2998 colon
SR leukemia = system: SR leukemia
CCRF-CEM leukemia = system: CCRF-CEM leukemia
NCI-H23 lung = system: NCI-H23 lung
SK-MEL-5 melanoma = system: SK-MEL-5 melanoma
M14 melanoma = system: M14 melanoma
OVCAR-3 ovarian = system: OVCAR-3 ovarian
UACC-257 melanoma = system: UACC-257 melanoma
OVCAR-4 ovarian = system: OVCAR-4 ovarian
HS 578T breast = system: HS 578T breast
HOP-62 NSCLC = system: HOP-62 NSCLC
DU-145 prostate = system: DU-145 prostate
A549 NSCLC = system: A549 NSCLC
MOLT-4 leukemia = system: MOLT-4 leukemia
NCI-H522 lung = system: NCI-H522 lung
EKVX NSCLC = system: EKVX NSCLC
HOP-92 NSCLC = system: HOP-92 NSCLC
786-0 renal = system: 786-0 renal
A498 renal = system: A498 renal
SNB-75 CNS = system: SNB-75 CNS
K-562 leukemia = system: K-562 leukemia
LOX IMVI melanoma = system: LOX IMVI melanoma
SK-MEL-2 melanoma = system: SK-MEL-2 melanoma
SW-620 colon = system: SW-620 colon
SF-539 CNS = system: SF-539 CNS
ACHN renal = system: ACHN renal
U251 CNS = system: U251 CNS

`CCN(CC)c1ccc(/C=N/NC(=O)c2ccc(NS(C)(=O)=O)cc2)c(O)c1` was tested, and the GI50 (NCI-H226 lung) was 1010 nM, the TGI (NCI-H226 lung) was 31.8 µM and the GI50 (HL-60(TB) leukemia) was 242 nM. The GI50 (NCI-H460 lung) was 455 nM, the TGI (NCI-H460 lung) was 10.2 µM and the GI50 (T-47D breast) was 2050 nM. The TGI (T-47D breast) was > 55.3 µM, the GI50 (MDA-MB-435) was 734 nM and the TGI (MDA-MB-435) was 97.2 µM. For the same compound, the GI50 (SK-OV-3 ovarian) was 508 nM, the TGI (SK-OV-3 ovarian) was 20.1 µM and the GI50 (HT29 colon) was 475 nM. The TGI (HT29 colon) was 16.7 µM, the GI50 (HCT-116 colon) was 330 nM and the TGI (HCT-116 colon) was 19.5 µM. For the same compound, the GI50 (SNB-19 CNS) was 830 nM, the TGI (SNB-19 CNS) was 30.7 µM and the GI50 (BT-549 breast) was 658 nM. It also gave a TGI (BT-549 breast) of 8.61 µM, a GI50 (RXF 393 renal) of 788 nM and a TGI (RXF 393 renal) of 3.23 µM. The GI50 (PC-3 prostate) was 369 nM, the TGI (PC-3 prostate) was > 54 µM and the GI50 (NCI/ADR-RES ovarian) was 3.18 µM. The TGI (NCI/ADR-RES ovarian) was 98.3 µM, the GI50 (SK-MEL-28 melanoma) was 444 nM and the TGI (SK-MEL-28 melanoma) was > 50.9 µM. For the same compound, the GI50 (OVCAR-5 ovarian) was 2470 nM, the TGI (OVCAR-5 ovarian) was > 100 µM and the GI50 (MALME-3M melanoma) was 788 nM. The TGI (MALME-3M melanoma) was 11.7 µM, the GI50 (CAKI-1 renal) was 434 nM and the TGI (CAKI-1 renal) was 17.7 µM. The GI50 (IGROV1 ovarian) was 540 nM, the TGI (IGROV1 ovarian) was > 70.3 µM and the GI50 (RPMI-8226 leukemia) was 2790 nM. The TGI (RPMI-8226 leukemia) was 16.2 µM, the GI50 (TK-10 renal) was 833 nM and the TGI (TK-10 renal) was 39.9 µM. The GI50 (OVCAR-8 ovarian) was 355 nM, the TGI (OVCAR-8 ovarian) was > 34 µM and the GI50 (UACC-62 melanoma) was 381 nM. For the same compound, the TGI (UACC-62 melanoma) was 7.1 µM, the GI50 (HCT-15 colon) was 386 nM and the TGI (HCT-15 colon) was > 68.8 µM. The GI50 (SF-268 CNS) was 243 nM, the TGI (SF-268 CNS) was 17.3 µM and the GI50 (SF-295 CNS) was 551 nM. For the same compound, the TGI (SF-295 CNS) was 14.8 µM, the GI50 (MDA-MB-231 breast) was 432 nM and the TGI (MDA-MB-231 breast) was 34.9 µM. It also gave a GI50 (KM12 colon) of 536 nM, a TGI (KM12 colon) of 19.6 µM and a GI50 (SN12C renal) of 768 nM. For the same compound, the TGI (SN12C renal) was 62.6 µM, the GI50 (MCF7 breast) was 409 nM and the TGI (MCF7 breast) was 24.5 µM. It also gave a GI50 (COLO 205 colon) of 356 nM, a TGI (COLO 205 colon) of 13.5 µM and a GI50 (UO-31 renal) of 397 nM. The TGI (UO-31 renal) was 20.5 µM, the GI50 (HCC-2998 colon) was 572 nM and the TGI (HCC-2998 colon) was 19.2 µM. For the same compound, the GI50 (SR leukemia) was 95.4 nM, the GI50 (CCRF-CEM leukemia) was 169 nM and the TGI (CCRF-CEM leukemia) was > 100 µM. It also gave a GI50 (NCI-H23 lung) of 1160 nM, a TGI (NCI-H23 lung) of 30.6 µM and a GI50 (SK-MEL-5 melanoma) of 853 nM. It also gave a TGI (SK-MEL-5 melanoma) of 21.3 µM, a GI50 (M14 melanoma) of 351 nM and a TGI (M14 melanoma) of 3.63 µM. The GI50 (OVCAR-3 ovarian) was 185 nM, the TGI (OVCAR-3 ovarian) was 26.3 µM and the GI50 (UACC-257 melanoma) was 568 nM. It also gave a TGI (UACC-257 melanoma) of 18.4 µM, a GI50 (OVCAR-4 ovarian) of 355 nM and a TGI (OVCAR-4 ovarian) of 42.4 µM. It also gave a GI50 (HS 578T breast) of 1950 nM, a TGI (HS 578T breast) of 18.3 µM and a GI50 (HOP-62 NSCLC) of 267 nM. The TGI (HOP-62 NSCLC) was 6.94 µM, the GI50 (DU-145 prostate) was 751 nM and the TGI (DU-145 prostate) was 23.3 µM. For the same compound, the GI50 (A549 NSCLC) was 1980 nM, the TGI (A549 NSCLC) was > 48.5 µM and the GI50 (MOLT-4 leukemia) was 331 nM. It also gave a TGI (MOLT-4 leukemia) of 25.6 µM, a GI50 (NCI-H522 lung) of 334 nM and a TGI (NCI-H522 lung) of 10.4 µM. The GI50 (EKVX NSCLC) was 574 nM, the TGI (EKVX NSCLC) was > 63.1 µM and the GI50 (HOP-92 NSCLC) was 386 nM. The TGI (HOP-92 NSCLC) was 20.5 µM, the GI50 (786-0 renal) was 425 nM and the TGI (786-0 renal) was 4.2 µM. For the same compound, the GI50 (A498 renal) was 2950 nM, the TGI (A498 renal) was 25.1 µM and the GI50 (SNB-75 CNS) was 309 nM. For the same compound, the TGI (SNB-75 CNS) was 5.65 µM, the GI50 (K-562 leukemia) was 443 nM and the TGI (K-562 leukemia) was > 100 µM. For the same compound, the GI50 (LOX IMVI melanoma) was 219 nM, the TGI (LOX IMVI melanoma) was 5.3 µM and the GI50 (SK-MEL-2 melanoma) was 2010 nM. The TGI (SK-MEL-2 melanoma) was 16.9 µM, the GI50 (SW-620 colon) was 468 nM and the TGI (SW-620 colon) was > 100 µM. It also gave a GI50 (SF-539 CNS) of 426 nM, a TGI (SF-539 CNS) of 7.07 µM and a GI50 (ACHN renal) of 497 nM. The TGI (ACHN renal) was 20.6 µM, the GI50 (U251 CNS) was 239 nM and the TGI (U251 CNS) was > 37.2 µM.
